What was measured:
[1] = tested on: H9 hESCs differentiating to hepatocyte like cells; assay: Quantitative PCR gene expression during differentiation; assay type: cell-based, human; conditions: days 0, 3, 9, 18; normalized to GAPDH
Procedure: Total RNA was isolated from cells using Trizol reagent. RNA quantification and quality was assessed using a Nanodrop system. The Life Technologies Superscript III reverse transcription kit was employed to prepare the cDNA. Quantitative PCR was performed with Taqman Fast Advance Mastermix and the appropriate primer pair and analysed using a Roche LightCycler 480 Real-Time PCR System. Gene expression was normalized to glyceraldehyde 3-phosphate dehydrogenase (GAPDH) and expressed as relative expression over the control sample (hESC on Day 0 of differentiation). Quantitative PCRs were performed in triplicate. Data analysis was performed using Roche LightCycler 480 Software (version 1.5). […] Cell extracts were collected during differentiation and mRNA assessed on days 0, 3, 9, and 18. […] It should be remembered that the “LN-511” label refers to a substrate containing a blend of laminin-521 and laminin-111 at a 1:3 weight ratio. FIG. 3 is a set of six bar graphs showing gene expression during differentiation on the three substrates (MG, LN-521, and LN-511) for six different genes whose name is above each graph. Relative gene expression was normalized to the housekeeping gene GAPDH. […] Endoderm associated gene FOXA2 peaked on all substrates on day 3 and then decreased thereafter. […] HNF4A was detected at day 3 on all substrates, but by day 9, significant differences in expression patterns emerged.

[2] = tested on: stem cell derived hepatocytes; assay: CYP3A and CYP1A2 activity using pGlo technology; assay type: cell-based, human; conditions: days 16-26
Procedure: Given that cell organisation and cell division are important factors in hepatocyte function, hepatocyte metabolic capacity in vitro was studied. Stem cell derived hepatocytes were first examined for cytochrome P450 expression using well characterised antisera. CYP3A and CYP1A2 activity were measured from days 16-26 using pGlo technology. CYP activity was expressed as relative light units (RLU) per milliliter of media per milligram of protein. Levels of significance were measured by student t-test.
All of the cells expressed high levels of each marker on each substrate.

[3] = tested on: hESC-derived hepatocytes; assay: Biliary efflux of CDFDA; assay type: cell-based, human; conditions: 2 μM CDFDA for 30 minutes; versus the MG substrate
Procedure: To determine whether these cells were capable of biliary efflux, cells were treated with 5(6)-carboxy-2′,7′-dichlorofluorescein diacetate (CDFDA), which was metabolised to fluorescent CDF and effluxed by multidrug resistance associated protein 2 (MRP2). hESC-derived hepatocytes were incubated with 2 μM of 5(6)-carboxy-2′,7′dichlorofluorescein diacetate (CDFDA) for 30 minutes. Cultures were then washed with ice-cold PBS containing calcium and magnesium. Cells were either collected for imaging or retained for quantification of efflux. For fluorescent quantification, hepatic maturation was replaced and cells incubated at 37 degrees Celsius for 30 minutes. The efflux of CDFDA from cells into media was measured by fluorescence spectroscopy at […] using a FLUOStar Omega multi-mode microplate reader.
The results are shown in the bottom row (C) of photomicrographs.

[4] = tested on: primary human hepatocytes (PHHs); assay: Primary human hepatocyte metabolism and protein production on the substrates; assay type: cell-based; conditions: female PHHs, ELISA
Procedure: Cryoplateable human hepatocytes were plated and maintained according to the instructions of vendor Life Technologies. Briefly, cryoplateable hepatocytes were resuscitated in thawing medium (Life Technologies, catalog no. CM3000) and plated onto the pre-coated 96 well plates. Cells-attached to all matrices efficiently and were maintained in an incubator set at 37 degrees Celsius and CO2 levels set to 5%. At 24 hours post-plating, the medium was changed to an incubation medium (catalog no. CM4000).
To determine whether these large changes in metabolic capacity correlated to increased protein production, the production of albumin and alpha fetoprotein (AFP) from hESC-derived and cryoplatable hepatocytes was quantified using commercially available enzyme-linked immunosorbent assay (ELISA) kits. The different media were collected at denoted time points during hESC differentiation, days 20-26. […] Samples were run in triplicate and measured on a FLUOStar Omega multi-mode microplate reader. Protein production was expressed as ng or μg of protein per milliliter of media, per milligram of protein. The results are shown in FIG. 7, where the expression of these two proteins was measured on days 20, 22, 24, and 26 of differentiation. Despite the large changes in metabolic capacity, no significant differences in albumin or AFP secretion was detected by ELISA. […]

[5] = tested on: MAN12 cells; assay: Immunostaining of ALB and CYP3A in MAN12 derived cells (Example 4); assay type: cell-based, human; conditions: MAN12, Day 24 of differentiation, Cameron protocol
Procedure: (§1) MAN12 cells, a GMP grade cell line, were plated on three different substrates. The first substrate was Matrigel® (MG), and served as a control. The second substrate was coated with 5 micrograms per square centimeter (μg/cm^2) of laminin-521 (LN-521). […] The cells were then differentiated according to the Cameron protocol.
FIG. 14 is a set of 15 photomicrographs at 10× magnification, organized into three columns and five rows, taken on Day 24 of differentiation. […] Row A is a set of phase contrast images of morphology. The scale bars are 200 μm. Row B is a set of photomicrographs showing the immunofluorescent staining of albumin (ALB) on the three different matrices. Row C is a set of photomicrographs showing the immunofluorescent staining of cytochrome P450 3A (CYP3A). Row D is a set of photomicrographs showing the immunofluorescent staining of multidrug resistance protein 1 (MRP1). Row E is a set of photomicrographs showing immunoglobulin G control staining for sheep, mouse, and rabbit antisera.
(§2) FIG. 15 is a set of four bar graphs. The first row of two graphs show hepatocyte protein secretion for alpha fetoprotein and albumin as analyzed by ELISA on day 24 of differentiation (n=3). No significant differences were observed across the three matrices. The second row of two graphs show the metabolic function of CYP p450 activity on days 18, 20, and 24 for CYP1A2 and CYP3A activity.

[6] = tested on: MAN12 derived hepatocytes; assay: Protein secretion (ELISA) and CYP p450 activity of MAN12 derived hepatocytes; assay type: cell-based, human; conditions: CYP1A2 and CYP3A activity, days 18, 20 and 24
Procedure: as §1, §2
Looking at both Example 4 and Example 5, the MAN11 and MAN12 cells differentiated efficiently on all three substrates, with the majority of cells (>80%) expressing albumin and CYP3A, as detected by immunostaining.

## LN-521: substrate coated with 5 μg/cm^2 of laminin-521, the protein formed by joining α5, β2 and γ1 chains
[1]
  AFP gene expression over time: peaking on day 9 then decreasing at day 18
  HNF4A gene expression over time: highest on day 9, decreasing by day 18
[2]
  CYP1A2 activity compared with MG control: significantly greater than it was on the control
[3]
  biliary efflux: more active biliary efflux
[4]
  albumin production: enhanced
[5]
  ALB, percentage of positive cells and standard deviation: 83.3% ± 8.5
  CYP3A, percentage of positive cells and standard deviation: 81.5% ± 8.6
[6]
  metabolic activity of MAN12 derived hepatocytes: improved metabolic activity

— US10683486B2, “Methods for producing hepatocytes” (BioLamina AB, priority 2015, dated 2020)
